Measurements reported in PubChem BioAssay (NCI).
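48-hour exposure; five concentrations; linearly interpolated endpoints. At the GI50, growth is halved. TGI: total growth inhibition.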

Experiments:
Test in all cases: NCI anticancer screen, dose series, 48 h
786-0 renal = tested on: 786-0 renal
A498 renal = tested on: A498 renal
A549 NSCLC = tested on: A549 NSCLC
ACHN renal = tested on: ACHN renal
BT-549 breast = tested on: BT-549 breast
CAKI-1 renal = tested on: CAKI-1 renal
CCRF-CEM leukemia = tested on: CCRF-CEM leukemia
COLO 205 colon = tested on: COLO 205 colon
DU-145 prostate = tested on: DU-145 prostate
EKVX NSCLC = tested on: EKVX NSCLC
HCC-2998 colon = tested on: HCC-2998 colon
HCT-116 colon = tested on: HCT-116 colon
HCT-15 colon = tested on: HCT-15 colon
HL-60(TB) leukemia = tested on: HL-60(TB) leukemia
HOP-62 NSCLC = tested on: HOP-62 NSCLC
HOP-92 NSCLC = tested on: HOP-92 NSCLC
HS 578T breast = tested on: HS 578T breast
HT29 colon = tested on: HT29 colon
IGROV1 ovarian = tested on: IGROV1 ovarian
K-562 leukemia = tested on: K-562 leukemia
KM12 colon = tested on: KM12 colon
LOX IMVI melanoma = tested on: LOX IMVI melanoma
M14 melanoma = tested on: M14 melanoma
MALME-3M melanoma = tested on: MALME-3M melanoma
MCF7 breast = tested on: MCF7 breast
MDA-MB-231 breast = tested on: MDA-MB-231 breast
MOLT-4 leukemia = tested on: MOLT-4 leukemia
NCI-H226 lung = tested on: NCI-H226 lung
NCI-H23 lung = tested on: NCI-H23 lung
NCI-H460 lung = tested on: NCI-H460 lung
NCI-H522 lung = tested on: NCI-H522 lung
NCI/ADR-RES ovarian = tested on: NCI/ADR-RES ovarian
OVCAR-3 ovarian = tested on: OVCAR-3 ovarian
OVCAR-4 ovarian = tested on: OVCAR-4 ovarian
OVCAR-5 ovarian = tested on: OVCAR-5 ovarian
OVCAR-8 ovarian = tested on: OVCAR-8 ovarian
PC-3 prostate = tested on: PC-3 prostate
RPMI-8226 leukemia = tested on: RPMI-8226 leukemia
RXF 393 renal = tested on: RXF 393 renal
SF-268 CNS = tested on: SF-268 CNS
SF-295 CNS = tested on: SF-295 CNS
SF-539 CNS = tested on: SF-539 CNS
SK-MEL-2 melanoma = tested on: SK-MEL-2 melanoma
SK-MEL-28 melanoma = tested on: SK-MEL-28 melanoma
SK-MEL-5 melanoma = tested on: SK-MEL-5 melanoma
SK-OV-3 ovarian = tested on: SK-OV-3 ovarian
SN12C renal = tested on: SN12C renal
SNB-19 CNS = tested on: SNB-19 CNS
SNB-75 CNS = tested on: SNB-75 CNS
SR leukemia = tested on: SR leukemia
SW-620 colon = tested on: SW-620 colon
TK-10 renal = tested on: TK-10 renal
U251 CNS = tested on: U251 CNS
UACC-257 melanoma = tested on: UACC-257 melanoma
UACC-62 melanoma = tested on: UACC-62 melanoma
UO-31 renal = tested on: UO-31 renal

COc1ccc(C(=O)Nc2ncc(Cc3ccc(Cl)cc3)s2)cc1
GI50 (786-0 renal): 77.9 nM
TGI (786-0 renal): > 100 µM
GI50 (A498 renal): 21.6 nM
TGI (A498 renal): 84.8 nM
GI50 (A549 NSCLC): 73.3 nM
TGI (A549 NSCLC): > 100 µM
GI50 (ACHN renal): 60.3 nM
TGI (ACHN renal): > 100 µM
GI50 (BT-549 breast): 1000 nM
TGI (BT-549 breast): > 100 µM
GI50 (CAKI-1 renal): 47.1 nM
TGI (CAKI-1 renal): > 73.1 µM
GI50 (CCRF-CEM leukemia): 46 nM
TGI (CCRF-CEM leukemia): > 100 µM
GI50 (COLO 205 colon): 53.3 nM
TGI (COLO 205 colon): 2290 nM
GI50 (DU-145 prostate): 104 nM
TGI (DU-145 prostate): > 100 µM
GI50 (EKVX NSCLC): 260 nM
TGI (EKVX NSCLC): > 100 µM
GI50 (HCC-2998 colon): 166 nM
TGI (HCC-2998 colon): 12.7 µM
GI50 (HCT-116 colon): 50.9 nM
TGI (HCT-116 colon): > 100 µM
GI50 (HCT-15 colon): 44 nM
TGI (HCT-15 colon): > 100 µM
GI50 (HL-60(TB) leukemia): 34.7 nM
GI50 (HOP-62 NSCLC): 98.4 nM
TGI (HOP-62 NSCLC): > 83.4 µM
GI50 (HOP-92 NSCLC): 3.71 µM
TGI (HOP-92 NSCLC): > 100 µM
GI50 (HS 578T breast): 40.7 nM
TGI (HS 578T breast): > 77 µM
GI50 (HT29 colon): 39.6 nM
TGI (HT29 colon): > 100 µM
GI50 (IGROV1 ovarian): 82.5 nM
TGI (IGROV1 ovarian): > 100 µM
GI50 (K-562 leukemia): 41 nM
TGI (K-562 leukemia): > 100 µM
GI50 (KM12 colon): 37.3 nM
TGI (KM12 colon): > 37.1 µM
GI50 (LOX IMVI melanoma): 62.8 nM
TGI (LOX IMVI melanoma): > 100 µM
GI50 (M14 melanoma): 42.2 nM
TGI (M14 melanoma): > 100 µM
GI50 (MALME-3M melanoma): 87 nM
TGI (MALME-3M melanoma): > 100 µM
GI50 (MCF7 breast): 38.5 nM
TGI (MCF7 breast): > 100 µM
GI50 (MDA-MB-231 breast): 176 nM
TGI (MDA-MB-231 breast): 47.3 µM
GI50 (MOLT-4 leukemia): 64 nM
TGI (MOLT-4 leukemia): > 100 µM
GI50 (NCI-H226 lung): 77.1 nM
TGI (NCI-H226 lung): > 64.3 µM
GI50 (NCI-H23 lung): 239 nM
TGI (NCI-H23 lung): > 100 µM
GI50 (NCI-H460 lung): 40.6 nM
TGI (NCI-H460 lung): > 100 µM
GI50 (NCI-H522 lung): 57.3 nM
TGI (NCI-H522 lung): > 37.8 µM
GI50 (NCI/ADR-RES ovarian): 45.7 nM
GI50 (OVCAR-3 ovarian): 32.7 nM
TGI (OVCAR-3 ovarian): 159 nM
GI50 (OVCAR-4 ovarian): 2700 nM
TGI (OVCAR-4 ovarian): > 100 µM
GI50 (OVCAR-5 ovarian): 247 nM
TGI (OVCAR-5 ovarian): > 100 µM
GI50 (OVCAR-8 ovarian): 117 nM
TGI (OVCAR-8 ovarian): > 100 µM
GI50 (PC-3 prostate): 52.8 nM
TGI (PC-3 prostate): > 100 µM
GI50 (RPMI-8226 leukemia): 37.5 nM
GI50 (RXF 393 renal): 48 nM
TGI (RXF 393 renal): 927 nM
GI50 (SF-268 CNS): 300 nM
TGI (SF-268 CNS): > 100 µM
GI50 (SF-295 CNS): 56.1 nM
TGI (SF-295 CNS): 1970 nM
GI50 (SF-539 CNS): 47 nM
TGI (SF-539 CNS): 516 nM
GI50 (SK-MEL-2 melanoma): 532 nM
TGI (SK-MEL-2 melanoma): > 100 µM
GI50 (SK-MEL-28 melanoma): 2120 nM
TGI (SK-MEL-28 melanoma): > 100 µM
GI50 (SK-MEL-5 melanoma): 41.9 nM
TGI (SK-MEL-5 melanoma): 2830 nM
GI50 (SK-OV-3 ovarian): 150 nM
TGI (SK-OV-3 ovarian): > 100 µM
GI50 (SN12C renal): 94.6 nM
TGI (SN12C renal): > 100 µM
GI50 (SNB-19 CNS): 89.7 nM
TGI (SNB-19 CNS): > 100 µM
GI50 (SNB-75 CNS): 42.4 nM
TGI (SNB-75 CNS): > 100 µM
GI50 (SR leukemia): 37.5 nM
TGI (SR leukemia): > 70.4 µM
GI50 (SW-620 colon): 45.5 nM
TGI (SW-620 colon): > 100 µM
GI50 (TK-10 renal): 3.94 µM
TGI (TK-10 renal): > 100 µM
GI50 (U251 CNS): 69.1 nM
TGI (U251 CNS): > 100 µM
GI50 (UACC-257 melanoma): 20 µM
TGI (UACC-257 melanoma): > 100 µM
GI50 (UACC-62 melanoma): 47.5 nM
TGI (UACC-62 melanoma): > 100 µM
GI50 (UO-31 renal): 910 nM
TGI (UO-31 renal): > 100 µM
